From patent US20250161377A1, “COMPOSITION COMPRISING AT LEAST ONE BIFIDOBACTERIUM STRAIN FOR THE TREATMENT OF VITILIGO” (INSTITUT NATIONAL DE LA SANTE ET DE LA RECHERCHE MEDICALE, priority 2022, published 2025)

Tested on: Primary human keratinocytes (NHK)
Experiment: Mitochondrial ROS in keratinocytes, dihydrorhodamine labeling quantified by FACS
Format: cell-based
Details: NHK pretreated one hour, basal untreated = 100
Description: Primary human keratinocytes (NHK) were isolated from the foreskin of healthy children and cultured in a serum-free medium supplemented with bovine pituitary extract (250 μg/mL) and EGF (0.25 ng/mL). The NHKs are then seeded onto 6-well plates and incubated in a controlled atmosphere. When the keratinocytes reach 70 to 80% confluence, the cells are pretreated, or not, for one hour with various components. As a positive control, the NHKs are pretreated for one hour with […] (100 μM). The plates are then washed 3 times with a PBS solution before incubating the pretreated NHKs for one hour in the presence of H2O2 (100 μM) or LPS (100 ng/mL). At the end of the incubation, the cells are incubated in a solution of dihydrorhodamine (5 μM) for 30 minutes at 37° C., which allows for the labeling of ROS, particularly mitochondrial ROS. After 3 washes with a PBS solution, the mitochondrial ROS are quantified by FACS.

Sinapine
Mitochondrial ROS Level (%) (no stress treatment (—), sinapine 100 μM): 100%
Mitochondrial ROS Level (%) (then H2O2 (100 μM) one hour, H2O2 alone = 352): 100%
Mitochondrial ROS Level (%) (then LPS (100 ng/mL) one hour, LPS alone = 124): 97%
